The text below walks through data of ChEMBL document CHEMBL3774317, “Design and synthesis of novel tamoxifen analogues that avoid CYP2D6 metabolism” (Eur J Med Chem, 2016).

Holding throughout (type): functional
The nature of experiment [1]: Cytotoxicity against human OVCAR8 cells assessed as cell growth at 5 nM after 48 hrs by SRB assay. The settings on record: OVCAR-8, 48 h, read-out: Activity.
Experiment [2] can be described thus: Cytotoxicity against human OVCAR4 cells assessed as cell growth at 5 nM after 48 hrs by SRB assay. To be noted: OVCAR-4, 48 h, read-out: Activity.
The test system of experiment [3] is MDA-MB-435. Briefly: Cytotoxicity against human MDA-MB-435 cells assessed as cell growth at 5 nM after 48 hrs by SRB assay. To be noted: MDA-MB-435, 48 h, read-out: Activity. For orientation: The SRB assay estimates cell density from bound dye.
In experiment [4] the test system is 786-0. Briefly: Cytotoxicity against human 786-0 cells assessed as cell growth at 50 nM after 48 hrs by SRB assay. The settings on record: 786-0, 48 h, read-out: Activity.
The test system of experiment [5] is A549. Briefly: Cytotoxicity against human A549 cells assessed as cell growth at 5 uM after 48 hrs by SRB assay. To be noted: A549, 48 h, read-out: Activity.
The nature of experiment [6]: Cytotoxicity against human OVCAR4 cells assessed as cell growth at 50 nM after 48 hrs by SRB assay. The settings on record: OVCAR-4, 48 h, read-out: Activity.
The nature of experiment [7]: Cytotoxicity against human OVCAR5 cells assessed as cell growth at 5 nM after 48 hrs by SRB assay. To be noted: OVCAR-5, 48 h, read-out: Activity.
Experiment [8] can be described thus: Cytotoxicity against human PC3 cells assessed as cell growth at 5 uM after 48 hrs by SRB assay. To be noted: PC-3, 48 h, read-out: Activity.
The subject of experiment [9] is Malme-3M. Briefly: Cytotoxicity against human MALME-3M cells assessed as cell growth at 10^-5 M after 48 hrs by SRB assay. The settings on record: read-out: Activity.
The nature of experiment [10]: Cytotoxicity against human COLO205 cells assessed as cell growth at 10^-6 M after 48 hrs by SRB assay. The settings on record: COLO 205, 48 h, read-out: Activity.
Experiment [11] can be described thus: Cytotoxicity against human SW620 cells assessed as cell growth at 10^-7 M after 48 hrs by SRB assay. The settings on record: SW-620, 48 h, read-out: Activity.
The nature of experiment [12]: Cytotoxicity against human OVCAR3 cells assessed as cell growth at 10^-5 M after 48 hrs by SRB assay. The settings on record: OVCAR-3, 48 h, read-out: Activity.
In experiment [13] the test system is A498. Briefly: Cytotoxicity against human A498 cells assessed as cell growth at 10^-4 M after 48 hrs by SRB assay. The settings on record: A498, 48 h, read-out: Activity.
Experiment [14] can be described thus: Cytotoxicity against human OVCAR8 cells assessed as cell growth at 10^-8 M after 48 hrs by SRB assay. The settings on record: OVCAR-8, 48 h, read-out: Activity.
A short description of experiment [15]: Cytotoxicity against human OVCAR3 cells assessed as cell growth at 10^-7 M after 48 hrs by SRB assay. To be noted: OVCAR-3, 48 h, read-out: Activity.
Experiment [16] is described as follows: Cytotoxicity against human OVCAR4 cells assessed as cell growth at […] after 48 hrs by SRB assay. To be noted: OVCAR-4, 48 h, read-out: Activity.
Experiment [17] can be described thus: Cytotoxicity against human SF539 cells assessed as cell growth at 10^-7 M after 48 hrs by SRB assay. The settings on record: SF-539, 48 h, read-out: Activity.
For experiment [18], the system named is U-251. Briefly: Cytotoxicity against human U251 cells assessed as cell growth at 10^-4 M after 48 hrs by SRB assay. To be noted: U-251, 48 h, read-out: Activity.
The subject of experiment [19] is MCF7. Briefly: Cytotoxicity against human MCF7 cells assessed as cell growth at 10^-7 M after 48 hrs by SRB assay. To be noted: MCF7, 48 h, read-out: Activity.

For the molecule `CCCCCCCCCC(=O)Oc1ccc(/C(=C(/C)c2ccccc2)c2ccc(OCCN3CCCC3)cc2)cc1`, the growth at 0.005 µM in experiment [1] amounted to 102%; in [2], 100%; in experiment [3], 99%; in experiment [7], 99%. The growth at 0.05 µM in [4] stood at 94%; in experiment [6], 92%. The growth at 5 µM in experiment [5] is 99%; in experiment [8], 89%.

In the case of `C/C(=C(/c1ccc(O)cc1)c1ccc(OCCN2CCCC2)cc1)c1ccccc1`, the growth at 10 µM in experiment [9] is -77%; in [12] it was 35%. Further, the growth at 1 µM in [10] came out at 88%. Besides, the growth at 0.1 µM amounted to 103% in experiment [11]; 99% in [15]; 95% in experiment [16]; 101% in experiment [17]; 44% in experiment [19]. The growth at 100 µM in experiment [13] was -82%; in [18], -98%. Besides, the growth at 0.01 µM in [14] is 104%.
